Measurements as given in PubChem BioAssay AID1996.
In brackets after ≈: the same amount, converted by molar mass.

Conditions: buffer; pH 7.4; 200.0 µM

| Compound | solubility kinetic |
| --- | --- |
| O=c1c2ccccc2ncn1Cc1ccc2c(c1)OCO2 | 15.1 µg/mL (≈ 53.9 µM) |
| CC(=O)c1ccc(N(CC(=O)Nc2cc(C)on2)S(=O)(=O)c2ccc(C)cc2)cc1 | 6.2 µg/mL (≈ 14.5 µM) |
| COc1ccc(NS(=O)(=O)c2cc(NC(=O)c3cc(F)c(F)cc3Cl)ccc2N2CCOCC2)cc1 | 3.7 µg/mL (≈ 6.88 µM) |
| Cc1cc(C(=O)OCC(=O)NCc2cccs2)ccc1[N+](=O)[O-] | 4.8 µg/mL (≈ 14.4 µM) |
| CCOC(=O)c1c2c3c(cccc3[nH]c1=O)C(=O)c1ccccc1-2 | < 0.7 µg/mL |
| CC(C)(CNc1ccc([N+](=O)[O-])cc1C#N)N1CCOCC1 | 8.1 µg/mL (≈ 26.6 µM) |
| COC(=O)C(O)(c1ccc(NC(=O)c2ccccc2)cc1)C(F)(F)F (centres undefined) | 42.9 µg/mL (≈ 121 µM) |
| O=C1N/C(=N/S(=O)(=O)Cc2ccccc2)S/C1=C/c1ccc2c(c1)OCO2 | 51 µg/mL (≈ 127 µM) |
| COC(=O)c1ccc(C)c(NS(=O)(=O)c2cn(C)nc2C)c1 | > 48.5 µg/mL |
| CCOC(=O)C1CCN(CC(=O)c2ccc(O)c(C)c2O)CC1 | 46.3 µg/mL (≈ 144 µM) |
| Cc1ccc(NCc2ccco2)cc1C.O=C(O)C(=O)O | 4.7 µg/mL |
| COCCN1CCn2c(nc3cc([N+](=O)[O-])ccc32)C1 | > 41.4 µg/mL |
| CCc1ccc2oc(C(=O)Nc3nonc3C)c(C)c2c1 | < 0.2 µg/mL |
| Cc1nc(Nc2ccc(Cl)cc2)c(C#N)c(=O)[nH]1 | 9.6 µg/mL (≈ 36.8 µM) |
| CC(C)(C)c1ccc(Oc2ccc(NC(=O)CCCC(=O)O)cn2)cc1 | > 53.5 µg/mL |
| Cn1cccc1-c1nc2ccccc2n1C | > 31.7 µg/mL |
| Cc1onc(-c2ccccc2Cl)c1C(=O)Nc1ccc(Cl)cn1 | 1 µg/mL (≈ 2.87 µM) |
| OC(c1nnc(-c2ccccc2)o1)c1cccs1 (centres undefined) | > 38.7 µg/mL |
| O=C(c1cc2cc(F)ccc2[nH]1)N1CCN(c2ccc(F)cc2)CC1 | 0.3 µg/mL (≈ 0.879 µM) |
| Cl.O=C(O)C1=CCCNC1 | > 24.5 µg/mL |

| Compound | solubility kinetic |
| --- | --- |
| C=CCNC(=O)C1CC1(c1cccc(C)c1)c1cccc(C)c1 (centres undefined) | 1.7 µg/mL (≈ 5.57 µM) |
| Cc1ccc(OCCNC(=O)CCc2nc3sc4c(c3c(=O)[nH]2)CCCC4)cc1 | 5.6 µg/mL (≈ 13.6 µM) |
| CCOC(=O)N1CCN(C/C(Cl)=C/c2ccccc2)CC1 | 29.8 µg/mL (≈ 96.5 µM) |
| COc1cccc2cc(C(=O)NCCc3ccccc3)c(=O)oc12 | < 0.7 µg/mL |
| O=C(NC(=O)N1CCCCC1)c1ccc(Cl)cc1 | > 40 µg/mL |
| COc1ccc(-c2cc(C(=O)N3CCOCC3)no2)cc1 | > 43.2 µg/mL |
| c1ccc(-c2cnc(CN3CCN(c4ccccc4)CC3)o2)cc1 | 40 µg/mL (≈ 125 µM) |
| N#Cc1ccc(OCC(=O)NC2CCCCCC2)cc1 | > 40.9 µg/mL |
| CCc1sc(C(=O)Nc2ccc(N3CCOCC3)cc2)cc1C | 8.1 µg/mL (≈ 24.5 µM) |
| COc1ccc(C(=O)N2CCc3cc4c(cc3C2C)OCCCO4)cc1 (centres undefined) | > 53 µg/mL |
| O=C(Cn1nc(C(F)F)cc1C1CC1)N1CCCC1 | > 40.4 µg/mL |
| Clc1cccc(CN2CCCCCC2)c1 | 14.3 µg/mL (≈ 63.9 µM) |
| Cc1ccc(C(CC(=O)N2CCCCC2)c2ccccc2)c(O)c1C (centres undefined) | 3.8 µg/mL (≈ 11.3 µM) |
| CCOC(=O)N1CCN(C(=O)c2ccc3ccccc3c2)CC1 | > 46.9 µg/mL |
| O=C(NCCc1ccccc1)c1ccccc1[N+](=O)[O-] | 33.6 µg/mL (≈ 124 µM) |
| Cc1ccc(C)c(OCC(=O)O/N=C(\N)c2cccc([N+](=O)[O-])c2)c1 | 1.2 µg/mL (≈ 3.5 µM) |
| Cc1c(C)[n+](=O)c2c(n1[O-])C(Br)CCC2Br (centres undefined) | > 52.8 µg/mL |
| COc1ccccc1CC(=O)NCC(c1ccco1)N1CCCCC1 (centres undefined) | > 51.4 µg/mL |
| O=C(Nc1ccc(NC(=O)c2cccnc2)cc1)c1ccccc1 | 0.8 µg/mL (≈ 2.52 µM) |
| COc1ccccc1NC(=O)c1ccc(C(=O)c2ccccc2)o1 | 8.8 µg/mL (≈ 27.4 µM) |

| Compound | solubility kinetic |
| --- | --- |
| CC(Sc1nncs1)C(=O)Nc1ccc2c(c1)OCCO2 (centres undefined) | > 48.5 µg/mL |
| Cc1ccc(SCCNCc2ccco2)cc1.Cl | 27.9 µg/mL |
| O=C1CSc2ccc(C(=O)NCCc3ccc(Cl)cc3Cl)cc2N1 | 3.7 µg/mL (≈ 9.7 µM) |
| CCCCN(C)Cc1c(C)[nH]c2ccccc2c1=O | > 38.8 µg/mL |
| COc1ccc(Sc2nc(-c3ccccc3)ncc2OC)cc1 | < 0.3 µg/mL |
| Cc1ccnc(NCc2ccc(Br)cc2)c1 | 2.3 µg/mL (≈ 8.3 µM) |
| CCOC(=O)c1sc(=S)n(-c2ccc(OC)cc2)c1C | 18.1 µg/mL (≈ 58.5 µM) |
| C/C(=N\NC(=O)c1cc(C)nc2ccccc12)c1ccccn1 | > 45.7 µg/mL |
| COC(=O)c1ccc(OC(=O)CN2C(=O)c3ccccc3C2=O)cc1 | 50.6 µg/mL (≈ 149 µM) |
| COc1cc(C2NC(=S)NC3=C2C(=O)CCC3)ccc1O (centres undefined) | > 45.7 µg/mL |
| Cc1cc(C(=O)COC(=O)c2ccc(F)cc2)c(C)n1C | 1.2 µg/mL (≈ 4.15 µM) |
| Cc1ccccc1OCCN1CCCC1 | 19.5 µg/mL (≈ 95 µM) |
| Cc1ccc(C(=O)CN2CCN(c3ccccn3)CC2)c(C)c1 | 25.5 µg/mL (≈ 82.4 µM) |
| Cc1cc(C)c2c(CN3CCC(C)CC3)cc(=O)oc2c1 | 4.3 µg/mL (≈ 15.1 µM) |
| COc1cc(OC)c(OC)cc1/C=C1/C(=O)N=C(N)N1C | 34.5 µg/mL (≈ 118 µM) |
| O=C(c1ccc([N+](=O)[O-])cc1)N1CCN(C(=O)c2ccco2)CC1 | > 49.4 µg/mL |
| O=C(c1ccc(S(=O)(=O)Nc2ccccc2F)cc1)N1CCN(c2ccccn2)CC1 | > 66.1 µg/mL |
| O=C(CCS(=O)(=O)c1ccccc1)Nc1nc(-c2ccc(F)cc2)cs1 | < 0.4 µg/mL |
| Cn1cnnc1SCC(=O)Nc1ncc([N+](=O)[O-])s1 | > 45 µg/mL |
